Like-named read-outs stand apart in the source and are kept apart here.
Legend:
Assay in all cases: biochemical
[1] = molecular target: ACVR2B (Homo sapiens, UniProt Q13705)
[2] = molecular target: AMPK-alpha2 (Homo sapiens, UniProt P54646)
[3] = molecular target: ANKK1 (Homo sapiens, UniProt Q8NFD2)
[4] = molecular target: ASK2 (Homo sapiens, UniProt O95382)
[5] = molecular target: AURKA (Homo sapiens, UniProt O14965)
[6] = molecular target: AURKB (Homo sapiens, UniProt Q96GD4)
[7] = molecular target: BRAF (Homo sapiens, UniProt P15056)
[8] = molecular target: BRAF(V600E) (Homo sapiens, UniProt P15056, V600E)
[9] = molecular target: CAMK2A (Homo sapiens, UniProt Q9UQM7)
[10] = molecular target: CAMK4 (Homo sapiens, UniProt Q16566)
[11] = molecular target: CDK4-cyclinD1 (Homo sapiens, UniProt P11802)
[12] = molecular target: CDKL1 (Homo sapiens, UniProt Q00532)
[13] = molecular target: CSNK1D (Homo sapiens, UniProt P48730)
[14] = molecular target: DDR2 (Homo sapiens, UniProt Q16832)
[15] = molecular target: EGFR(G719S) (Homo sapiens, UniProt P00533, G719S)
[16] = molecular target: FGFR2 (Homo sapiens, UniProt P21802)
[17] = molecular target: FLT4 (Homo sapiens, UniProt P35916)
[18] = molecular target: GRK4 (Homo sapiens, UniProt P32298)
[19] = molecular target: HCK (Homo sapiens, UniProt P08631)
[20] = molecular target: HIPK4 (Homo sapiens, UniProt Q8NE63)
[21] = molecular target: IRAK4 (Homo sapiens, UniProt Q9NWZ3)
[22] = molecular target: KIT (Homo sapiens, UniProt P10721)
[23] = molecular target: KIT(D816H) (Homo sapiens, UniProt P10721, D816H)
[24] = molecular target: KIT(V559D) (Homo sapiens, UniProt P10721, V559D)
[25] = molecular target: LOK (Homo sapiens, UniProt O94804)
[26] = molecular target: LZK (Homo sapiens, UniProt O43283)
[27] = molecular target: MET (Homo sapiens, UniProt P08581)
[28] = molecular target: MINK (Homo sapiens, UniProt Q8N4C8)
[29] = molecular target: MKNK1 (Homo sapiens, UniProt Q9BUB5)
[30] = molecular target: MST1R (Homo sapiens, UniProt Q04912)
[31] = read-out: HYJ-2-002-1 (1uM) % control
[32] = read-out: CPT-1-70-1 (1uM) % control

CSNK1D, sequence (P48730 whole entry): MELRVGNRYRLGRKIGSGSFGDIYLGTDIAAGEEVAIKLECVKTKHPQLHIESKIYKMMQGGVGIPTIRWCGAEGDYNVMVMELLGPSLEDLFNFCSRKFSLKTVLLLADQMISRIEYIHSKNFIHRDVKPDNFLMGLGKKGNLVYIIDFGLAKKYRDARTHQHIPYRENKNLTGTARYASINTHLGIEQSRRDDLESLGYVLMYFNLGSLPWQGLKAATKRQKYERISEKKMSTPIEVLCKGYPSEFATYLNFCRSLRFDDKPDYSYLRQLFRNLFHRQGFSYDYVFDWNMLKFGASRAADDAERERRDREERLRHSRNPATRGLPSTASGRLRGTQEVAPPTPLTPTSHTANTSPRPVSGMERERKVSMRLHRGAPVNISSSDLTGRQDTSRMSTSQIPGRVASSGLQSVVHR
CAMK4, sequence (Q16566 whole entry): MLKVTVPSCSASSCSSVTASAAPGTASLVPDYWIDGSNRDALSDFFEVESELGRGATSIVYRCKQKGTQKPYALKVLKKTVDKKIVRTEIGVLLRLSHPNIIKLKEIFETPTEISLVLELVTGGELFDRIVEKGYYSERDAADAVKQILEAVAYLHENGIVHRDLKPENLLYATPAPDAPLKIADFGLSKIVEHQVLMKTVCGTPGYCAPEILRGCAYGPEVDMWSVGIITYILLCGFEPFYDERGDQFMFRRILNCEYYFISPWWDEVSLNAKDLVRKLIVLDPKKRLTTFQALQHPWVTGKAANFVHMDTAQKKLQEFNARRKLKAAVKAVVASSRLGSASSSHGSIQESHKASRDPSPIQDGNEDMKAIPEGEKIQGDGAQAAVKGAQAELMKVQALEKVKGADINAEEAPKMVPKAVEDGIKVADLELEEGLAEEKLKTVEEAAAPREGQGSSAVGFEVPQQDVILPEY
DDR2, sequence (Q16832 whole entry): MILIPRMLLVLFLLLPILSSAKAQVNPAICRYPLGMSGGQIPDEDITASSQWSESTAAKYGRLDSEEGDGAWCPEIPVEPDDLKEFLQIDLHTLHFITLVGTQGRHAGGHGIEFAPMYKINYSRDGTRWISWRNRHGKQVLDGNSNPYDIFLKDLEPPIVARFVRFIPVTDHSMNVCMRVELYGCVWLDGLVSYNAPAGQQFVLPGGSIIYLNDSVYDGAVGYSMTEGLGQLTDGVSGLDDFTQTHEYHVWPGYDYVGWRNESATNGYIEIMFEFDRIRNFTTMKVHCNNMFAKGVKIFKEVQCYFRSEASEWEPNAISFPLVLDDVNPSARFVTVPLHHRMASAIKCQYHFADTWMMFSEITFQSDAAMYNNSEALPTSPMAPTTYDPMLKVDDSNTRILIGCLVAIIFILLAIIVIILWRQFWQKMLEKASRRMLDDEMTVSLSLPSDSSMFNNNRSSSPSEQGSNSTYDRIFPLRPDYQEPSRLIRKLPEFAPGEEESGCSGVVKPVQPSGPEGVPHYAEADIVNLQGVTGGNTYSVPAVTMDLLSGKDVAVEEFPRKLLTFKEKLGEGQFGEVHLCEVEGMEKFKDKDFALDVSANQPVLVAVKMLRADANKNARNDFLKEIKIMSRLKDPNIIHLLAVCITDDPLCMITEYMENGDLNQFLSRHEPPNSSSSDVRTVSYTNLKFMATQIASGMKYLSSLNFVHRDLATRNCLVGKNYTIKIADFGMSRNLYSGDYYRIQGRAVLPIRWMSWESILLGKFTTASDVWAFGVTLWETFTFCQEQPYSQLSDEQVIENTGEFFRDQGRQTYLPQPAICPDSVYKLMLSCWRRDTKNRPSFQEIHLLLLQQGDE
KIT(V559D), sequence (P10721 whole entry V559D): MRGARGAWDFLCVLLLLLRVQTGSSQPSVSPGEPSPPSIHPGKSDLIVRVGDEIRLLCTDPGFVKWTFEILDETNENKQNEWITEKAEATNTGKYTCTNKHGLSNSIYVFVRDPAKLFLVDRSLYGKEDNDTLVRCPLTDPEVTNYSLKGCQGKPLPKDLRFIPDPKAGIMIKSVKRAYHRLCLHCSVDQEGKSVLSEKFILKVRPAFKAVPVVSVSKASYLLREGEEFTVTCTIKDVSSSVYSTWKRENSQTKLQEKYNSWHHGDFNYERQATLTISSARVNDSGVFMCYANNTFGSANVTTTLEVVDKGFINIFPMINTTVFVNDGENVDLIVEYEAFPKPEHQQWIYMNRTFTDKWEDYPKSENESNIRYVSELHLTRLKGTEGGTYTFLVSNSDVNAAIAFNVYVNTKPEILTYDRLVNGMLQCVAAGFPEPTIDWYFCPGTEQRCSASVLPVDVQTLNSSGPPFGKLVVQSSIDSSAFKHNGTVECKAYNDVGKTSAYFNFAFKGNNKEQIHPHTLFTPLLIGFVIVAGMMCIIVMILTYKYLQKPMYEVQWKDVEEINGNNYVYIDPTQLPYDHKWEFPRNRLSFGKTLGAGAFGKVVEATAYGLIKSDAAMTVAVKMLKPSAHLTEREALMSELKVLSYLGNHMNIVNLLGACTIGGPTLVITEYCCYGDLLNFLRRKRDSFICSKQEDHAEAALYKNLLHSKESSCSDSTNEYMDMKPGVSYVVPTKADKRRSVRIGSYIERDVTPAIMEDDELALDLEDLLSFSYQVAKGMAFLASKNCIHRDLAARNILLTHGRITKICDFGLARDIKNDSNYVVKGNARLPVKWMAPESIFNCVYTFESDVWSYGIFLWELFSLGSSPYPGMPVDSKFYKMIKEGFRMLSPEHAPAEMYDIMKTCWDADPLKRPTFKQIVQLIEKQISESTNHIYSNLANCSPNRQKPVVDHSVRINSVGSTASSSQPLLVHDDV
EGFR(G719S), sequence (P00533 whole entry G719S): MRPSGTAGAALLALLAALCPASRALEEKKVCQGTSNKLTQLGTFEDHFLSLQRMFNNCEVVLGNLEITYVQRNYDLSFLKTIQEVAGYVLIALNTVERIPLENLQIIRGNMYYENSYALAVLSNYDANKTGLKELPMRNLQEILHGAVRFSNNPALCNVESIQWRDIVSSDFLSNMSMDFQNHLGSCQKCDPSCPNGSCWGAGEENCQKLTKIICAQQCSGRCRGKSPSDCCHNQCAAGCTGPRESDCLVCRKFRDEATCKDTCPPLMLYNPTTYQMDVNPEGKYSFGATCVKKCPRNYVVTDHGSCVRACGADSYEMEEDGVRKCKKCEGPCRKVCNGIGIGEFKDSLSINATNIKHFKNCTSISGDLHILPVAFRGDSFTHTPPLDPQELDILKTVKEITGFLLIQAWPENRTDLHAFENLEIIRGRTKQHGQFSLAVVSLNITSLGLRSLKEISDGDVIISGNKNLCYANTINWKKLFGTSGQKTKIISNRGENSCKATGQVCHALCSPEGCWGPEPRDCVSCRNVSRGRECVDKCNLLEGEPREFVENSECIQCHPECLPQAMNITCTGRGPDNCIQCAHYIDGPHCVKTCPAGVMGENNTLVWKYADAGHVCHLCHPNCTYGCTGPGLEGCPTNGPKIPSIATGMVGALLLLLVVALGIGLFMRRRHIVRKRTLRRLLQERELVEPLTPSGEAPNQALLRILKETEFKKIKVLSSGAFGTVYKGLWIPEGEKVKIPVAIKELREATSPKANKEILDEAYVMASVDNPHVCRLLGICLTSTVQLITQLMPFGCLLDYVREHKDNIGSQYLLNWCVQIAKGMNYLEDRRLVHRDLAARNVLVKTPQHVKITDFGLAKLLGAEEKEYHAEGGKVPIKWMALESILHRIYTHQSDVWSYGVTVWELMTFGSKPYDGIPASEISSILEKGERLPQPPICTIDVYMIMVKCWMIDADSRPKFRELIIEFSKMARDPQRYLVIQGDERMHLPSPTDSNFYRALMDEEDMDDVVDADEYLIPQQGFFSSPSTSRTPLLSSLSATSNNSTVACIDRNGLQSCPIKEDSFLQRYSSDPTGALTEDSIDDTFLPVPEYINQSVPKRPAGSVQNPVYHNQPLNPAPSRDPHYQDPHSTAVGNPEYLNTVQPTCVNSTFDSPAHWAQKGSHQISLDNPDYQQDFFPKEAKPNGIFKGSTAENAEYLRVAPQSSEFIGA
GRK4, sequence (P32298 whole entry): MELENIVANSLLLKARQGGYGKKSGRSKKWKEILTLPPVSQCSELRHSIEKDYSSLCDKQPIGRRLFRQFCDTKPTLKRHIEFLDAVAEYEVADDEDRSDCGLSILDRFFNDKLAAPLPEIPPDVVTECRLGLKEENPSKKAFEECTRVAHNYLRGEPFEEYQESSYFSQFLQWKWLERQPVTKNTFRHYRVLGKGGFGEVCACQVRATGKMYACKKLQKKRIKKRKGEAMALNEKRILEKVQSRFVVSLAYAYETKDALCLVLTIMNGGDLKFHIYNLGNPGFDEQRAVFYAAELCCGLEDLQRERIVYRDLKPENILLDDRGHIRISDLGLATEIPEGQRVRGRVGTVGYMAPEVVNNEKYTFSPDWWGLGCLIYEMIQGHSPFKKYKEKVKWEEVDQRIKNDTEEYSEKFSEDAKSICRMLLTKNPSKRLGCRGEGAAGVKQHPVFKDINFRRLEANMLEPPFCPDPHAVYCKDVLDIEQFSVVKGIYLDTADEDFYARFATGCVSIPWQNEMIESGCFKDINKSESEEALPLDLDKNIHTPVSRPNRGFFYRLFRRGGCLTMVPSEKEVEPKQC
HCK, sequence (P08631 whole entry): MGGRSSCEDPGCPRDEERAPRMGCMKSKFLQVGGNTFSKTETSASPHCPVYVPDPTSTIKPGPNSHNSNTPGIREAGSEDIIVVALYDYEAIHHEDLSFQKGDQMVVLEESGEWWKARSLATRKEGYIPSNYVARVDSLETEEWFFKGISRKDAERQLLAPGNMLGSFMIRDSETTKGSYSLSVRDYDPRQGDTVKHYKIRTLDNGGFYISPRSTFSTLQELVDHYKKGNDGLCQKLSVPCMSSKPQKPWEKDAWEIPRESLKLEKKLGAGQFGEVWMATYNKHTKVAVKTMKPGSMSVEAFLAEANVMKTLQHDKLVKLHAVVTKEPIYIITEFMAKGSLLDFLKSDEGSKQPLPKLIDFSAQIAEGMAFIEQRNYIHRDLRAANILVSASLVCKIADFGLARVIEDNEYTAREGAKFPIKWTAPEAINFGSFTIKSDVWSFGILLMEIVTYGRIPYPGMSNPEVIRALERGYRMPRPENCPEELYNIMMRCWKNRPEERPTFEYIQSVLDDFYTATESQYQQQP

Question: `CCN1CCN(Cc2ccc(NC(=O)c3ccc(C)c(CCc4cnc5[nH]ccc5c4OC)c3)cc2C(F)(F)F)CC1` [HYJ-2-002-1] was tested. Which remaining activity at 1 µM [1, 31] did it give?
Answer: Its remaining activity at 1 µM is 100%.

Question: What about the remaining activity at 1 µM [2, 31] of the same compound?
Answer: The remaining activity at 1 µM was 100%.

Question: What about the remaining activity at 1 µM [3, 31] of the same compound?
Answer: The remaining activity at 1 µM was 9.4%.

Question: And the remaining activity at 1 µM [4, 31]?
Answer: Its remaining activity at 1 µM is 100%.

Question: And the remaining activity at 1 µM [5, 31]?
Answer: The remaining activity at 1 µM was 100%.

Question: And the remaining activity at 1 µM [6, 31]?
Answer: The remaining activity at 1 µM was 43%.

Question: And the remaining activity at 1 µM [7, 31]?
Answer: The remaining activity at 1 µM was 3.7%.

Question: And the remaining activity at 1 µM [8, 31]?
Answer: Its remaining activity at 1 µM is 1.2%.

Question: What about the remaining activity at 1 µM [9, 31] of the same compound?
Answer: The remaining activity at 1 µM was 100%.

Question: And the remaining activity at 1 µM [10, 31]?
Answer: The remaining activity at 1 µM was 100%.

Question: What about the remaining activity at 1 µM [11, 31] of the same compound?
Answer: The remaining activity at 1 µM was 80%.

Question: What about the remaining activity at 1 µM [12, 31] of the same compound?
Answer: The remaining activity at 1 µM was 94%.

Question: What about the remaining activity at 1 µM [13, 31] of the same compound?
Answer: Its remaining activity at 1 µM is 73%.

Question: And the remaining activity at 1 µM [14, 31]?
Answer: Its remaining activity at 1 µM is 0.05%.

Question: What about the remaining activity at 1 µM [15, 31] of the same compound?
Answer: Its remaining activity at 1 µM is 1.8%.

Question: What about the remaining activity at 1 µM [16, 31] of the same compound?
Answer: Its remaining activity at 1 µM is 5.7%.

Question: And the remaining activity at 1 µM [17, 31]?
Answer: Its remaining activity at 1 µM is 3.8%.

Question: And the remaining activity at 1 µM [18, 31]?
Answer: Its remaining activity at 1 µM is 100%.

Question: And the remaining activity at 1 µM [19, 31]?
Answer: The remaining activity at 1 µM was 0.55%.

Question: And the remaining activity at 1 µM [20, 31]?
Answer: The remaining activity at 1 µM was 2.6%.

Question: What about the remaining activity at 1 µM [21, 31] of the same compound?
Answer: The remaining activity at 1 µM was 94%.

Question: And the remaining activity at 1 µM [22, 31]?
Answer: Its remaining activity at 1 µM is 0%.

Question: And the remaining activity at 1 µM [23, 31]?
Answer: Its remaining activity at 1 µM is 43%.

Question: And the remaining activity at 1 µM [24, 31]?
Answer: The remaining activity at 1 µM was 0%.

Question: And the remaining activity at 1 µM [25, 31]?
Answer: The remaining activity at 1 µM was 0.75%.

Question: What about the remaining activity at 1 µM [26, 31] of the same compound?
Answer: The remaining activity at 1 µM was 78%.

Question: And the remaining activity at 1 µM [27, 31]?
Answer: The remaining activity at 1 µM was 59%.

Question: What about the remaining activity at 1 µM [28, 31] of the same compound?
Answer: The remaining activity at 1 µM was 33%.

Question: And the remaining activity at 1 µM [29, 31]?
Answer: The remaining activity at 1 µM was 84%.

Question: What about the remaining activity at 1 µM [30, 31] of the same compound?
Answer: The remaining activity at 1 µM was 100%.

Question: Which remaining activity at 1 µM [1, 32] does the source give for `CN1CCN(c2ccc(Nc3nc(Oc4ccc(NC(=O)CCl)cc4)c4cc[nH]c4n3)cc2)CC1` [CPT1-70-1] here?
Answer: Its remaining activity at 1 µM is 100%.

Question: And the remaining activity at 1 µM [2, 32]?
Answer: Its remaining activity at 1 µM is 41%.

Question: And the remaining activity at 1 µM [3, 32]?
Answer: The remaining activity at 1 µM was 93%.

Question: And the remaining activity at 1 µM [4, 32]?
Answer: Its remaining activity at 1 µM is 100%.

Question: What about the remaining activity at 1 µM [5, 32] of the same compound?
Answer: The remaining activity at 1 µM was 37%.

Question: What about the remaining activity at 1 µM [6, 32] of the same compound?
Answer: Its remaining activity at 1 µM is 61%.

Question: What about the remaining activity at 1 µM [7, 32] of the same compound?
Answer: Its remaining activity at 1 µM is 87%.

Question: What about the remaining activity at 1 µM [8, 32] of the same compound?
Answer: Its remaining activity at 1 µM is 100%.

Question: What about the remaining activity at 1 µM [9, 32] of the same compound?
Answer: The remaining activity at 1 µM was 95%.

Question: What about the remaining activity at 1 µM [10, 32] of the same compound?
Answer: Its remaining activity at 1 µM is 100%.

Question: What about the remaining activity at 1 µM [11, 32] of the same compound?
Answer: The remaining activity at 1 µM was 81%.

Question: What about the remaining activity at 1 µM [12, 32] of the same compound?
Answer: Its remaining activity at 1 µM is 66%.

Question: And the remaining activity at 1 µM [13, 32]?
Answer: The remaining activity at 1 µM was 43%.

Question: What about the remaining activity at 1 µM [14, 32] of the same compound?
Answer: Its remaining activity at 1 µM is 100%.

Question: And the remaining activity at 1 µM [15, 32]?
Answer: Its remaining activity at 1 µM is 34%.

Question: And the remaining activity at 1 µM [16, 32]?
Answer: Its remaining activity at 1 µM is 22%.

Question: And the remaining activity at 1 µM [17, 32]?
Answer: The remaining activity at 1 µM was 81%.

Question: And the remaining activity at 1 µM [18, 32]?
Answer: The remaining activity at 1 µM was 100%.

Question: What about the remaining activity at 1 µM [19, 32] of the same compound?
Answer: Its remaining activity at 1 µM is 85%.

Question: What about the remaining activity at 1 µM [20, 32] of the same compound?
Answer: The remaining activity at 1 µM was 74%.

Question: What about the remaining activity at 1 µM [21, 32] of the same compound?
Answer: Its remaining activity at 1 µM is 94%.

Question: And the remaining activity at 1 µM [22, 32]?
Answer: Its remaining activity at 1 µM is 20%.

Question: What about the remaining activity at 1 µM [23, 32] of the same compound?
Answer: Its remaining activity at 1 µM is 83%.

Question: And the remaining activity at 1 µM [24, 32]?
Answer: Its remaining activity at 1 µM is 15%.

Question: What about the remaining activity at 1 µM [25, 32] of the same compound?
Answer: Its remaining activity at 1 µM is 100%.

Question: And the remaining activity at 1 µM [26, 32]?
Answer: Its remaining activity at 1 µM is 73%.

Question: What about the remaining activity at 1 µM [27, 32] of the same compound?
Answer: Its remaining activity at 1 µM is 28%.

Question: And the remaining activity at 1 µM [28, 32]?
Answer: The remaining activity at 1 µM was 41%.

Question: And the remaining activity at 1 µM [29, 32]?
Answer: The remaining activity at 1 µM was 100%.

Question: What about the remaining activity at 1 µM [30, 32] of the same compound?
Answer: The remaining activity at 1 µM was 100%.

— paper doi:10.1101/2020.06.11.145995v1 (biorxiv, 2020)
